Experimental data from patent publication US10137116B2, “Benzimidazole sulfide derivatives for the treatment or prevention of tuberculosis” (priority 2015, dated 2018).
In brackets after ≈: the same amount, converted by molar mass. Entries after “also recorded” stand apart in the source; their conditions may differ. Read-outs that look alike come from different tables or passages of the source.

Columns and labels:
Mtb H37Rv = assay: microbe, parasite or virus in culture; assay type: cell-based, Mycobacterium tuberculosis; conditions: for IC50: Mycobacterium tuberculosis, H37RV
[1] = system: intracellular Mtb-GFP (Mtb-Erdman) in MRC-5 fibroblasts; assay: microbe, parasite or virus in culture; assay type: cell-based, Mycobacterium tuberculosis; conditions: for activity in ex vivo assay: intracellular (ex vivo) assay; for IC50: Mycobacterium tuberculosis, ERDMAN, MRC5
[2] = system: Mtb-Erdman infected MRC-5 human lung fibroblasts; assay: Fibroblast survival assay (HTS): protection of MRC-5 lung fibroblasts from Mtb-induced cytotoxicity; assay type: cell-based, Mycobacterium tuberculosis; conditions: for activity in fibroblast survival assay: concentrations up to 50 μM, FIG. 1
[3] = system: intracellular Mtb-GFP in RAW264.7 macrophages; assay: microbe, parasite or virus in culture; assay type: cell-based; conditions: Mycobacterium tuberculosis, FIG. 2B, read-out: IC50 (growth of intracellular bacteria)
[4] = Drug quantification in 7H9 broth (LC/MS); assay type: physicochemical; conditions: 500 nM, 48 hours, FIG. 3C
Experimental: (§1) Quantification in 7H9 broth was performed with 500 nM of LPZ, acetonitrile was added in a 1:1 ratio at given time-points followed by spinning and shock freezing. The UPLC separation was done on an Agilent 1290 Infinity LC system including the 1290 Infinity LC system Binary Pump with integrated degasser, the High Performance Autosampler and a thermostatted column compartment. The samples (2 μL) were injected into a Zorbax Extend-C18 (2.1×50 mm, 1.8 μm) analytical column operated at 40° C., using H2O—HCOOH 0.1% and CH3CN—HCOOH 0.1% as mobile phases A and B (2 to 100% B in 5 min) at a flow rate of 0.4 mL/min. The UPLC system was interfaced with a 6530 Accurate-Mass Q-TOF LC/MS system (Agilent Technologies). Electrospray-ionisation MS data were acquired in the positive ionization mode, in the mass range m/z 100-1000 (2 spectra/s). Experimental parameters were set as follows: Fragmentor: 190V, Vcap: 3500 V, gas temperature: 300° C., sheath gas temperature: 350° C. External calibration was carried out with a solution of ESI_L (Agilent). Data were processed using MassHunter.
In mycobacterial growth medium, the results were markedly different. A rapid decay of LPZ was also observed confirming the instability of this drug. However, though LPZS was detectable in increasing amounts over time, it was not the major product of LPZ decay (FIG. 3C). […]

[5] = Intracellular drug quantification in MRC-5 cells (LC/MS); assay type: in vitro ADME, human; conditions: MRC-5 cells exposed to 2 μM, 48 hours
Experimental: For intracellular drug quantification, 20000 MRC-5 cells were seeded in 96 well plates and exposed to 2 μM of LPZ. At given time-points, cells were extensively washed with PBS and lysed with 0.1% Triton X-100 in PBS and acetonitrile (1:1 ratio). After spinning at 15,000 g at 4° C., samples were shock frozen in liquid nitrogen and stored at −80° C. for MS.
as §1, with “Experimental parameters were set as follows: Fragmentor: 190V, Vcap: 3500 V, gas temperature: 300° C., sheath gas temperature: 350° C. External calibration was carried out with a solution of ESI_L (Agilent). Data were processed using MassHunter.” left out
The intracellular LPZ and possible metabolites were quantified at different time-points over a period of 48 hours using LC/MS.

[6] = system: Mycobacterium massiliense 2005-0484; assay: REMA MIC; assay type: cell-based; conditions: Mycobacteroides abscessus, 20050484
[7] = system: Mycobacterium tuberculosis HN878 (Beijing strain); assay: REMA MIC; assay type: cell-based
[8] = system: Mycobacterium smegmatis mc2155; assay: microbe, parasite or virus in culture; assay type: cell-based; conditions: Mycolicibacterium smegmatis
[9] = doses as high as 300 mg/kg twice a day
Mycobacterium avium = assay: REMA MIC; assay type: cell-based
Escherichia coli = assay: REMA MIC; assay type: cell-based
Bacillus subtilis = assay: REMA MIC; assay type: cell-based
Micrococcus Luteus = assay: REMA MIC; assay type: cell-based
Pseudomonas aeruginosa = assay: REMA MIC; assay type: cell-based
Staphylococcus aureus = assay: REMA MIC; assay type: cell-based
Listeria monocytogenes = assay: REMA MIC; assay type: cell-based
[10] = system: Corynebacterium glutamicum; assay: REMA MIC; assay type: cell-based
Mtb-H37Rv = assay type: in vivo, BALB/c mice; conditions: 300 mg/kg twice a day for 9 days, vs vehicle TPGS, FIG. 4
Salmonella typhimurium = assay: REMA MIC; assay type: cell-based; conditions: Salmonella enterica
non-Mtb strains = assay: MIC, summary statement for non-Mtb strains; assay type: cell-based; conditions: other non-Mtb strains such as Mycobacterium abcessus 2005-0524 or Escherichia coli
[11] = design: species or system BALB/c mice; conditions: BALB/c, mouse, in vivo, 0.5 h
Experimental: For pharmacokinetic studies BALB/c mice (18-20 g) were given 100 mg/kg or 300 mg/kg LPZS in 20% TPGS (D-α tocopheryl polyethylene glycol 1000 succinate). At given time-points, blood from 3 mice was taken and, after spinning, serum was treated with acetonitrile (1:4 ratio). After a second spin, supernatants were frozen for LC/MS experiments.
BALB/c mice were given 100 mg/kg or 300 mg/kg of LPZS by oral gavage and serum levels were determined after 0.5, 1, 2, 4, 8 and 24 hours (FIG. 5).

Mycobacterium marinum M = assay: REMA MIC; assay type: cell-based
Candida albicans = assay: REMA MIC; assay type: cell-based
Pseudomonas putida = assay: REMA MIC; assay type: cell-based
[12] = system: Mycobacterium vaccae ATCC 15483; assay: REMA MIC; assay type: cell-based; conditions: Mycolicibacterium vaccae, ATCC15483
[13] = system: Mycobacterium tuberculosis H37Rv; assay: REMA MIC; assay type: cell-based
THP-1 = assay type: cell-based
Text: (§2) Cytotoxicity of LPZS on THP1 macrophages, human liver hepatoma cells (HuH7-D12), human lung epithelial carcinoma cells (A549) and human embryonic liver cells (HepG2) (Table 5).

[14] = system: Mycobacterium tuberculosis Erdman; assay: REMA MIC; assay type: cell-based
HepG2 = assay type: cell-based, human
Text: as §2

Mtb strains = assay: MIC, summary statement for Mtb strains; assay type: cell-based; conditions: Mycobacterium tuberculosis; Mtb strains such as H37Rv, Erdman and HN878 (Table 3)
[15] = system: Corynebacterium diphtheriae; assay: REMA MIC; assay type: cell-based
[16] = system: Mycobacterium bolletii 1999-0888; assay: REMA MIC; assay type: cell-based; conditions: Mycobacteroides abscessus, 19990888
human proton pump = human proton pump (Homo sapiens, UniProt P20648); conditions: cited from earlier work
Chain of human proton pump (P20648 whole entry): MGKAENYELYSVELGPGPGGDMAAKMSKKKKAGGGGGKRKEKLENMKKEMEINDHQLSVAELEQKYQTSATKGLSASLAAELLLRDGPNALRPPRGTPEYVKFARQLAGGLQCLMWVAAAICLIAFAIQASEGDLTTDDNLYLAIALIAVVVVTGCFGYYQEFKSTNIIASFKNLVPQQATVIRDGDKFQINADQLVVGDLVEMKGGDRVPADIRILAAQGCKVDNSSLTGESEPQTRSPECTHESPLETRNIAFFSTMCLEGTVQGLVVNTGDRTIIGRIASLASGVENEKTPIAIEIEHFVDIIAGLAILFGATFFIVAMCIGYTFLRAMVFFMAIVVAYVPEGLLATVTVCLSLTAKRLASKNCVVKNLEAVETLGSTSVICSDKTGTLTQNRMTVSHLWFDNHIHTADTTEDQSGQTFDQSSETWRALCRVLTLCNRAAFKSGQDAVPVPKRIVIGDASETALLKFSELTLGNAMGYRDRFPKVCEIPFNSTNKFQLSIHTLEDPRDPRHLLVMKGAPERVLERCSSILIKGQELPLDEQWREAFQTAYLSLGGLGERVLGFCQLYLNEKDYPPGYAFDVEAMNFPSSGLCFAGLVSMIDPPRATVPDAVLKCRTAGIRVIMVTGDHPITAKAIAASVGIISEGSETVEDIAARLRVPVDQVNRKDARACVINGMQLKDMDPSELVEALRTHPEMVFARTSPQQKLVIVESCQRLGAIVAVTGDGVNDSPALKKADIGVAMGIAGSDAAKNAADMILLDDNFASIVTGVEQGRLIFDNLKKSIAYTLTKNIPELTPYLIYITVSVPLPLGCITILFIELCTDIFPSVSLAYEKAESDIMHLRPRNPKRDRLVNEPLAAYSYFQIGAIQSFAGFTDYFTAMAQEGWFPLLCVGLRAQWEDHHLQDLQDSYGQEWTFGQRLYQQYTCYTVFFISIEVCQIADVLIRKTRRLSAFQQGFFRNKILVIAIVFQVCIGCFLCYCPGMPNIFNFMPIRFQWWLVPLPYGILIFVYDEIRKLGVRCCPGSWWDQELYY
Chain of human proton pump (P51164 whole entry partner): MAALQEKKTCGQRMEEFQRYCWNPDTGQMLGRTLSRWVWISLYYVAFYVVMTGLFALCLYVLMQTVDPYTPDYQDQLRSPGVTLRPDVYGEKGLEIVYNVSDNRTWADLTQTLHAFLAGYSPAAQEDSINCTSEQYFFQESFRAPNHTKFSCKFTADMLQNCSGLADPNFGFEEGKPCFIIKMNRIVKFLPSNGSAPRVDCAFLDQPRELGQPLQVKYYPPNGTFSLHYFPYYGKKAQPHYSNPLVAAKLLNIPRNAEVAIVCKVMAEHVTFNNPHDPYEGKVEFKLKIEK

[17] = system: Mycobacterium abcessus 2005-0524; assay: REMA MIC; assay type: cell-based; conditions: 20050524
Enterococcus faecalis = assay: REMA MIC; assay type: cell-based
[18] = table values in μM or words, read-out: IC50 against Mtb in broth
[19] = table values in μM or words, read-out: IC50 intracellular

Compound: Cc1c(OCC(F)(F)F)ccnc1CS(=O)(=O)c1nc2ccccc2[nH]1
- IC50 against Mtb in broth (Mtb H37Rv; table values in μM or words): Inactive
- IC50 intracellular ([1]; table values in μM or words): Inactive

Compound: Cc1c(SCCN2CCc3ccccc3C2)ccnc1CSc1nc2ccccc2[nH]1
- IC50 (Mtb H37Rv; [18]): 2.7 µM

Compound: COc1ccc2[nH]c([S+]([O-])Cc3ncc(C)c(OC)c3C)nc2c1 (stereo not shown) [Omeprazole]
- activity in in vitro assay (Mtb H37Rv): inactive
- activity in fibroblast survival assay [2]: inactive
- activity in ex vivo assay [1]: inactive

Compound: COc1ccnc(C[S+]([O-])c2nc3ccc(OC(F)F)cc3[nH]2)c1OC (stereo not shown) [Pantoprazole]
- activity in in vitro assay (Mtb H37Rv): inactive
- activity in fibroblast survival assay [2]: inactive
- activity in ex vivo assay [1]: inactive

Compound: Cc1c(OCC(F)(F)F)ccnc1C[S+]([O-])c1nc2ccccc2[nH]1 (stereo not shown) [R-Lansoprazole]
- IC50 (Mtb H37Rv; read-out: IC50 (inhibit Mtb)): < 40 µM
- IC50 (Mtb H37Rv; [18]): 32.8 µM
- IC50 [1, 19]: 1.47 µM

Compound: Cc1c(Cl)ccnc1CSc1nc2ccccc2[nH]1 [4-Desmethoxypropoxyl-4-chloro rabebrazole sulfide]
- IC50 (Mtb H37Rv; read-out: IC50 (Mtb in broth)): 6 to 12 µM
- IC50 (Mtb H37Rv; [18]): 6 to 12 µM
- IC50 [1, 19]: 6 µM

Compound: COc1ccc2[nH]c([S+]([O-])Cc3ncc(C)c(OC)c3C)nc2c1 (stereo not shown) [drawing 26]
- IC50 against Mtb in broth (Mtb H37Rv; table values in μM or words): Inactive
- IC50 intracellular ([1]; table values in μM or words): Inactive

Compound: COc1ccc2[nH]c(SCc3ncc(C)cc3C)nc2c1
- IC50 against Mtb in broth (Mtb H37Rv; table values in μM or words): inactive
- IC50 intracellular ([1]; table values in μM or words): inactive

Compound: COCCCOc1ccnc(C[S+]([O-])c2nc3ccccc3[nH]2)c1C (stereo not shown) [Rabeprazole sodium]
- IC50 (Mtb H37Rv; read-out: IC50 (Mtb in broth)): 25 µM
- IC50 (Mtb H37Rv; read-out: IC50 (inhibit Mtb)): < 40 µM
- IC50 (Mtb H37Rv; [18]): 25 µM
- IC50 [1, 19]: 6 µM

Compound: Cc1c(OCC(F)(F)F)ccnc1C[S+]([O-])c1nc2ccccc2[nH]1 (racemic) [LPZ, (RS)-2-([3-méthyl-4-(2,2,2-trifluoroéthoxy)pyridin-2-yl]méthylsulfinyl)-1H-benzimidazole]
- IC50 [3]: 2.2 µM
- IC50 (Mtb H37Rv; read-out: IC50 (Mtb in broth)): 32.8 µM
- IC50 (Mtb H37Rv; read-out: IC50 (inhibit Mtb)): < 40 µM
- IC50 (Mtb H37Rv; [18]): 32.8 µM
- decay in mycobacterial growth medium [4]: rapid decay
- fibroblast survival / protection against Mtb induced killing [2]: supported fibroblast survival at rates comparable to well established anti-mycobacterial drugs such as Rifampicin and Moxifloxacine; also recorded: inhibits the growth of Mtb as well as Rifampicin or Moxifloxacine
- intracellular decay [5]: rapid intracellular decay
- IC50 ([1]; MRC-5 cells, FIG. 2A, read-out: IC50 (Mtb-GFP signal)): 1.47 µM
- IC50 [1, 19]: 1.47 µM

Compound: COc1ccnc(C[S+]([O-])c2nc3cc(OC(F)F)ccc3[nH]2)c1OC.[Na+] (stereo not shown)
- IC50 against Mtb in broth (Mtb H37Rv; table values in μM or words): Inactive
- IC50 intracellular ([1]; table values in μM or words): Inactive

Compound: Cc1c(OCC(F)(F)F)ccnc1CSc1nc2ccccc2[nH]1 [LPZS, Lanzoprazole sulfide]
- MIC [6]: > 100 µM
- MIC [7]: 1.74 µM (≈ 0.615 µg/mL)
- MIC [8]: > 100 µM
- signs of toxicity in mice [9]: no signs of toxicity
- MIC (Mycobacterium avium): > 100 µM
- MIC (Escherichia coli): > 100 µM
- MIC (Bacillus subtilis): > 100 µM
- MIC (Micrococcus Luteus): > 100 µM
- MIC (Pseudomonas aeruginosa): > 100 µM
- MIC (Staphylococcus aureus): > 100 µM
- MIC (Listeria monocytogenes): > 100 µM
- MIC [10]: > 100 µM
- bacterial burden (cfu) in the lungs (Mtb-H37Rv): significantly reduced
- MIC (Salmonella typhimurium): > 100 µM
- MIC (non-Mtb strains): > 100 µM
- concentration in blood relative to Cmax [11]: 100 % of Cmax
- MIC (Mycobacterium marinum M): 100 µM (≈ 35.3 µg/mL)
- IC50 (Mtb H37Rv; read-out: IC50 (Mtb in broth)): 0.46 µM
- IC50 (Mtb H37Rv; table values in nM, read-out: IC50 against Mtb in broth): 0.46 µM
- MIC (Candida albicans): > 100 µM
- MIC (Pseudomonas putida): > 100 µM
- IC50 ([1]; read-out: IC50 (intracellular activity)): 0.59 µM
- IC50 ([1]; table values in nM, read-out: IC50 intracellular): 0.59 µM
- MIC [12]: > 100 µM
- MIC [13]: 1.13 µM (≈ 0.399 µg/mL)
- TD50 (THP-1): 75 µM
- TD99 (THP-1): >100 µM
- MIC [14]: 1.21 µM (≈ 0.428 µg/mL)
- TD50 (HepG2): 25 µM
- TD99 (HepG2): 100 µM
- MIC (Mtb strains): < 2 µM
- MIC [15]: > 100 µM
- MIC [16]: > 100 µM
- activity towards the human proton pump (human proton pump): no activity
- MIC [17]: > 100 µM
- MIC (Enterococcus faecalis): > 100 µM

Compound: FC(F)(F)Oc1ccc(C2CCN(c3ccc(CSc4nc5ccccc5[nH]4)cc3)CC2)cc1
- IC50 (Mtb H37Rv; [18]): ~48 µM

Compound: 5-hydroxy Lansoprazole potassium
- activity in in vitro assay (Mtb H37Rv): inactive
- activity in ex vivo assay [1]: inactive

Compound: COCCCOc1ccnc(CSc2nc3ccccc3[nH]2)c1C [Rabeprazole sulfide]
- IC50 (Mtb H37Rv; read-out: IC50 (Mtb in broth)): 5 µM
- IC50 (Mtb H37Rv; [18]): 5 µM
- IC50 [1, 19]: 3 µM
